Here are results for 47 compounds from patent publication US12091399B2, “Phenyltetrazole derivatives as plasma kallikrein inhibitors” (Boehringer Ingelheim International GmbH, priority 2018, dated 2024).

pIC50: −log10 of the molar value.

Human PKK, sequence (P03952 391-638): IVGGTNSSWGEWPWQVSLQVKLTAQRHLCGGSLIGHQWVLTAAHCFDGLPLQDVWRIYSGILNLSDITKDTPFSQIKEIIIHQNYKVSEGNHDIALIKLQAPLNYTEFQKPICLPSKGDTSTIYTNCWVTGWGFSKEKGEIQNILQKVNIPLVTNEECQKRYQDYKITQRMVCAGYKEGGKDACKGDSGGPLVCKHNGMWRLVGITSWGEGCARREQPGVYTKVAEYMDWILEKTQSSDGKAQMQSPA
Human PKK, sequence (P03952 20-390 partner): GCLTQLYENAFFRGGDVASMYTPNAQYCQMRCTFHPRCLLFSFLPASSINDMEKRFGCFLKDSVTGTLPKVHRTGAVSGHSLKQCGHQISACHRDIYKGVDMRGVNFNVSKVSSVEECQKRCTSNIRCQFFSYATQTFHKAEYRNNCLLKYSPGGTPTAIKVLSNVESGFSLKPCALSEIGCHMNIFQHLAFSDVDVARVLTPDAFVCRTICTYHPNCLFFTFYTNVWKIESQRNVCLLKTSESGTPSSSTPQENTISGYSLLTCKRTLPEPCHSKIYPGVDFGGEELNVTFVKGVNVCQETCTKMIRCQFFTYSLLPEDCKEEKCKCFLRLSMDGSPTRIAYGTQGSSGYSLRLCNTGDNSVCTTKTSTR

In this assay the target is Human PKK (Homo sapiens (Human), UniProt P03952). The assay is described as follows: Inhibition of PKK using an endpoint assay (human PKK). The format is biochemical. To be noted: 1 h at rt, 0.10 μM H-Pro-Phe-Arg-AMC. The procedure:
The ability of compounds of formula (I) to inhibit plasma kallikrein (PKK), Factor XIIa (FXIIa), Factor XIa (FXIa), Factor Xa (FXa), Factor IIa (alpha-thrombin; FIIa), plasmin, trypsin, tissue kallikrein 1 (TK1), Factor Vila (FVIIa), or FVIIa complexed with Tissue Factor, phospholipids and CaCl2) (FVIIa/TF/PL/CaCl2) was determined using the following biochemical assays in assay buffer (100 mM Tris, 150 mM NaCL, adjusted to a pH of 7.8 with HCl, and containing 0.1% (w/v) BSA and 0.05% (v/v) Tween20) in the presence of 1% (v/v) DMSO:
Subsequently, PPACK II (Calbiochem) was added as a stop solution to achieve a final concentration of 1 μM and fluorescence was measured using an Envision Reader (PerkinElmer) with the wavelength excitation setting of 355 nm and the wavelength emission setting of 460 nm. The number of the compound corresponds to the number of the Example in the experimental section.
As usually defined, the pIC50 is the negative decadic logarithm of the IC50, by convention in mol/L. For the compound `Cc1cc(Cl)cc(CNC(=O)c2cnn(Cc3ccc(N4CC5CC5C4)nc3C)c2)c1-n1cnnn1` (centres unmarked) [Example 4], the pIC50 is 7.09.

On to `Cc1nc(N2CC3CC3C2)ccc1Cn1cc(C(=O)NCc2c(-n3cnnn3)ccc(Cl)c2F)c(Cl)n1` (centres unmarked) [Example 7], for which the pIC50 was 9.10. Compared with the last compound, the pIC50 is 2.01 log units higher.

Compound `Cc1nc(N2CC3C(C2)C3(F)F)ccc1Cn1cc(C(=O)NCc2cc(Cl)ccc2-n2cnnn2)c2cncnc21` (centres unmarked) [Example 8] gave a pIC50 of 9.00.

Take `Cc1nc(N2CC3CC3C2)ccc1Cn1cc(C(=O)NCc2c(-n3cnnn3)ccc(Cl)c2F)c(C(F)F)n1` (centres unmarked) [Example 10]: the pIC50 was 9.30.

With `COCc1nn(Cc2ccc(N3CC4C(C3)C4(F)F)nc2C)cc1C(=O)NCc1c(-n2cnnn2)ccc(Cl)c1F` (centres unmarked) [Example 11], the pIC50 was 9.22.

Consider `COCc1nn(Cc2ccc(N3CC4C(C3)C4(F)F)nc2C)cc1C(=O)NCc1cc(Cl)ccc1-n1cnnn1` (centres unmarked) [Example 12], for which the pIC50 is 9.05.

`COCc1nn(Cc2ccc(N3CC4CC4C3)nc2C)cc1C(=O)NCc1c(-n2cnnn2)ccc(Cl)c1F` (centres unmarked) [Example 14] showed a negative logarithm of the IC50 (pIC50) of 9.22.

Consider `Cc1nc(N2CC3CC3C2)ccc1Cn1cc(C(=O)NCc2c(-n3cnnn3)ccc(Cl)c2F)c2cncnc21` (centres unmarked) [Example 16], for which the pIC50 is 9.22.

On to `Cc1nc(N2CC3C(C2)C3(F)F)ccc1Cn1cc(C(=O)NCc2c(-n3cnnn3)ccc(Cl)c2F)c(C)n1` (centres unmarked) [Example 17], for which the pIC50 is 9.40. This pIC50 and that of the compound before are within 0.2 log units of each other.

In turn, `Cc1nc(N2CC3C(C2)C3(F)F)ccc1Cn1cc(C(=O)NCc2cc(Cl)ccc2-n2cnnn2)c(C)n1` (centres unmarked) [Example 18] showed a pIC50 of 9.00.

The compound `Cc1nc(N2CC3CC3C2)ccc1Cn1cc(C(=O)NCc2cc(Cl)ccc2-n2cnnn2)c(C)n1` (centres unmarked) [Example 19] gave a negative-log IC50 (pIC50) of 9.15.

Turning to `Cc1nc(N2CC3CC3C2)ccc1Cn1cc(C(=O)NCc2c(-n3cnnn3)ccc(Cl)c2F)c(C)n1` (centres unmarked) [Example 20], the pIC50 was 9.40.

`COc1nn(Cc2ccc(N3CC4CC4C3)nc2C)cc1C(=O)NCc1c(-n2cnnn2)ccc(Cl)c1F` (centres unmarked) [Example 22]: the pIC50 is 9.00.

`Cc1nc(N2CC3C(C2)C3(F)F)ncc1Cn1cc(C(=O)NCc2c(-n3cnnn3)ccc(Cl)c2F)c2cncnc21` (centres unmarked) [Example 23] gave a pIC50 of 9.00.

Take `Cc1nc(N2CC3C(C2)C3(F)F)ncc1Cn1cc(C(=O)NCc2cc(Cl)ccc2-n2cnnn2)c2cncnc21` (centres unmarked) [Example 24]: the pIC50 is 8.70.

Compound `COCc1nn(Cc2ccc(N3CC4(CC4)C3)nc2C)cc1C(=O)NCc1cc(Cl)ccc1-n1cnnn1` [Example 25] showed a pIC50 of 9.00.

In turn, `Cc1nc(N2CC3CC3C2)ncc1Cn1cc(C(=O)NCc2c(-n3cnnn3)ccc(Cl)c2F)c2cncnc21` (centres unmarked) [Example 26] gave a pIC50 of 9.05.

Compound `Cc1nc(N2CC3CC3C2)ncc1Cn1cc(C(=O)NCc2cc(Cl)ccc2-n2cnnn2)c2cncnc21` (centres unmarked) [Example 27] gave a pIC50 of 8.52.

Compound `Cc1nc(N2CC3(CC3)C2)ccc1Cn1cc(C(=O)NCc2c(-n3cnnn3)ccc(Cl)c2F)c(C)n1` [Example 28] gave a pIC50 of 7.85.

`Cc1nc(N2CC3(CC3)C2)ccc1Cn1cc(C(=O)NCc2cc(Cl)ccc2-n2cnnn2)c(C)n1` [Example 29] had a pIC50 of 8.70.

The compound `Cc1nc(N2CC3CC3C2)ncc1Cn1cc(C(=O)NCc2c(-n3cnnn3)ccc(Cl)c2F)c(C)n1` (centres unmarked) [Example 30] showed a pIC50 of 9.10. This pIC50 is 0.40 log units higher than that of the compound before.

`Cc1nc(N2CC3CC3C2)ncc1Cn1cc(C(=O)NCc2cc(Cl)ccc2-n2cnnn2)c(C)n1` (centres unmarked) [Example 31] gave a pIC50 of 8.70.

In turn, `COCc1nn(Cc2cnc(N3CC4C(C3)C4(F)F)nc2C)cc1C(=O)NCc1c(-n2cnnn2)ccc(Cl)c1F` (centres unmarked) [Example 32] gave a pIC50 of 9.00. This pIC50 lies 0.30 log units higher than the previous one.

For the compound `Cc1nc(N2CC3C(C2)C3(F)F)ncc1Cn1cc(C(=O)NCc2c(-n3cnnn3)ccc(Cl)c2F)c(C)n1` (centres unmarked) [Example 33], the pIC50 is 9.10.

The compound `Cc1nc(N2CC3C(C2)C3(F)F)ncc1Cn1cc(C(=O)NCc2cc(Cl)ccc2-n2cnnn2)c(C)n1` (centres unmarked) [Example 34] gave a pIC50 of 9.00.

Consider `COCc1nn(Cc2cnc(N3CC4CC4C3)nc2C)cc1C(=O)NCc1c(-n2cnnn2)ccc(Cl)c1F` (centres unmarked) [Example 35], for which the pIC50 was 9.00.

With `COCc1nn(Cc2cnc(N3CC4CC4C3)nc2C)cc1C(=O)NCc1cc(Cl)ccc1-n1cnnn1` (centres unmarked) [Example 36], the pIC50 is 8.30. Compared with the last compound, the pIC50 is 0.70 log units lower.

The compound `Cc1nc(N2CC3(CC3)C2)ncc1Cn1cc(C(=O)NCc2cc(Cl)ccc2-n2cnnn2)c(C)n1` [Example 37] showed a pIC50 of 8.70.

`Cc1nc(N2CC3(CC3)C2)ncc1Cn1cc(C(=O)NCc2c(-n3cnnn3)ccc(Cl)c2F)c(C)n1` [Example 38] had a pIC50 of 9.15. Compared with the last compound, the pIC50 is 0.45 log units higher.

`Cc1nc(N2CC3(CC3)C2)ncc1Cn1cc(C(=O)NCc2cc(Cl)ccc2-n2cnnn2)cn1` [Example 39] gave a pIC50 of 8.52. This pIC50 is 0.63 log units lower than that of the compound before.

As for `Cc1nc(N2CC3(CC3)C2)ncc1Cn1cc(C(=O)NCc2c(-n3cnnn3)ccc(Cl)c2F)cn1` [Example 40], the pIC50 is 9.30.

Consider `COCc1nn(Cc2cnc(N3CC4(CC4)C3)nc2C)cc1C(=O)NCc1cc(Cl)ccc1-n1cnnn1` [Example 41], for which the pIC50 was 8.22.

Regarding `Cc1nc(N2CC3CC3C2)ccc1Cn1cc(C(=O)NCc2c(-n3cnnn3)ccc(Cl)c2F)c(-c2cnn(C)c2)n1` (centres unmarked) [Example 43], the pIC50 is 9.40.

`Cc1nc(N2CC3CC3C2)ccc1Cn1cc(C(=O)NCc2cc(Cl)ccc2-n2cnnn2)c2cccnc21` (centres unmarked) [Example 50] gave a negative-log IC50 (pIC50) of 8.05.

Compound `O=C(NCc1cc(Cl)ccc1-n1cnnn1)c1cnn(Cc2cnc(N3CC4C(C3)C4(F)F)c(Br)c2)c1` (centres unmarked) [Example 51] showed a pIC50 of 8.70.

In turn, `Cc1nc(N2CC3(CC3)C2)ccc1Cn1cc(C(=O)NCc2c(-n3cnnn3)ccc(Cl)c2F)cn1` [Example 53] showed a pIC50 of 9.70.

For the compound `COC[C@H]1[C@H]2CN(c3ccc(Cn4cc(C(=O)NCc5cc(Cl)ccc5-n5cnnn5)cn4)c(C)n3)C[C@@H]12` [Example 55], the pIC50 is 8.52.

The compound `Cc1nc(N2C[C@@H]3[C@@H](O)[C@@H]3C2)ccc1Cn1cc(C(=O)NCc2cc(Cl)ccc2-n2cnnn2)cn1` [Example 56] showed a pIC50 of 8.22.

On to `Cc1nc(N2CC3(CC3)C2)ncc1Cn1cc(C(=O)NCc2cc(Cl)ccc2-n2cnnn2)c2cncnc21` [Example 57], for which the pIC50 is 8.30.

`Cc1nc(N2CCC3(COC3)C2)ccc1Cn1cc(C(=O)NCc2cc(Cl)ccc2-n2cnnn2)cn1` [Example 61, N-{[5-chloro-2-(1H-1,2,3,4-tetrazol-1-yl)phenyl]methyl}-1-[(2-methyl-6-{2-oxa-6-azaspiro[3.4]octan-6-yl}pyridin-3-yl)methyl]-1H-pyrazole-4-carboxamide] gave a pIC50 of 7.92.

As to `Cc1nc(N2C[C@@H]3CNC(=O)[C@@H]3C2)ccc1Cn1cc(C(=O)NCc2cc(Cl)ccc2-n2cnnn2)cn1` [Example 62, 1-({6-[(3aS,6aS)-4-oxo-octahydropyrrolo[3,4-c]pyrrol-2-yl]-2-methylpyridin-3-yl}methyl)-N-{[5-chloro-2-(1H-1,2,3,4-tetrazol-1-yl)phenyl]methyl}-1H-pyrazole-4-carboxamide], the pIC50 was 8.52.

Compound `Cc1nc(N2CC3(CC(O)C3)C2)ccc1Cn1cc(C(=O)NCc2cc(Cl)ccc2-n2cnnn2)cn1` [Example 64, N-{[5-chloro-2-(1H-1,2,3,4-tetrazol-1-yl)phenyl]methyl}-1-[(6-{6-hydroxy-2-azaspiro[3.3]heptan-2-yl}-2-methylpyridin-3-yl)methyl]-1H-pyrazole-4-carboxamide] had a pIC50 of 6.65. Compared with the last compound, the pIC50 is 1.87 log units lower.

In turn, `Cc1nc(N2CC3CC(C2)O3)ccc1Cn1cc(C(=O)NCc2cc(Cl)ccc2-n2cnnn2)cn1` [Example 65, N-{[5-chloro-2-(1H-1,2,3,4-tetrazol-1-yl)phenyl]methyl}-1-[(2-methyl-6-{6-oxa-3-azabicyclo[3.1.1]heptan-3-yl}pyridin-3-yl)methyl]-1H-pyrazole-4-carboxamide] gave a negative logarithm of the IC50 (pIC50) of 8.00.

Turning to `Cc1nc(N2CCC3(C2)CC3(F)F)ccc1Cn1cc(C(=O)NCc2cc(Cl)ccc2-n2cnnn2)cn1` (centres unmarked) [Example 66, N-{[5-chloro-2-(1H-1,2,3,4-tetrazol-1-yl)phenyl]methyl}-1-[(6-{1,1-difluoro-5-azaspiro[2.4]heptan-5-yl}-2-methylpyridin-3-yl)methyl]-1H-pyrazole-4-carboxamide], the pIC50 is 8.05.

In the case of `Cc1nc(N2CC3CC2C3)ccc1Cn1cc(C(=O)NCc2cc(Cl)ccc2-n2cnnn2)cn1` [Example 67, 1-[(6-{2-azabicyclo[2.1.1]hexan-2-yl}-2-methylpyridin-3-yl)methyl]-N-{[5-chloro-2-(1H-1,2,3,4-tetrazol-1-yl)phenyl]methyl}-1H-pyrazole-4-carboxamide], the pIC50 is 8.00.

Compound `Cc1nc(N2CC3CC(C2)C3O)ccc1Cn1cc(C(=O)NCc2cc(Cl)ccc2-n2cnnn2)cn1` (centres unmarked) [Example 68, N-{[5-chloro-2-(1H-1,2,3,4-tetrazol-1-yl)phenyl]methyl}-1-[(6-{6-hydroxy-3-azabicyclo[3.1.1]heptan-3-yl}-2-methylpyridin-3-yl)methyl]-1H-pyrazole-4-carboxamide] showed a pIC50 of 8.40.

Consider `Cc1nc(N2CC3(CCCO3)C2)ccc1Cn1cc(C(=O)NCc2cc(Cl)ccc2-n2cnnn2)cn1` [Example 69, N-{[5-chloro-2-(1H-1,2,3,4-tetrazol-1-yl)phenyl]methyl}-1-[(2-methyl-6-{5-oxa-2-azaspiro[3.4]octan-2-yl}pyridin-3-yl)methyl]-1H-pyrazole-4-carboxamide], for which the pIC50 is 8.30.
